In data set [1] the test system is MHV. Nature of the data set: microbe, parasite or virus in culture. It is filed as cell-based, mouse hepatitis virus. The conditions noted are these: Murine coronavirus, L929, 24 h, read-out: EC50 in cell culture, MHV.
For data set [2], the system named is FIPV. The experiment in a line: microbe, parasite or virus in culture. The class given is cell-based, feline infectious peritonitis virus. The conditions noted are these: Alphacoronavirus 1, CRFK, 24 h, read-out: EC50 in cell culture, FIPV.
Data set [3] concerns the target 3CLpro of SARS-CoV (Severe acute respiratory syndrome coronavirus, UniProt P0C6X7). Nature of the data set: biochemical.
Data set [4] in a line: in vitro.
Data set [5] deals with 3CLpro of MERS-CoV (Middle East respiratory syndrome-related coronavirus, UniProt K9N7C7). Nature of the data set: biochemical.
The target in data set [6] is T1, 3CLpro of SARS-CoV-2 (Severe acute respiratory syndrome coronavirus 2, UniProt P0DTD1).
T1 construct: His6 (N); made in house; host or cells: E. coli (inferred from the pET-28a(+) vector)
The experiment in a line: biochemical.

The test system of data set [7] is SARS-CoV-2. The experiment in a line: microbe, parasite or virus in culture. The class given is cell-based. The conditions noted are these: Severe acute respiratory syndrome coronavirus 2, Vero C1008, read-out: EC50 in cell culture, SARS-CoV-2.
The subject of data set [8] is MERS-CoV. The experiment in a line: microbe, parasite or virus in culture. It is filed as cell-based.
In data set [9] the test system is SARS-CoV-2. The experiment in a line: microbe, parasite or virus in culture. The class given is cell-based.
Data set [10] relates to MERSMA-CoV. The conditions noted are these: mouse, in vivo, 50 mg/kg/day.
Data set [11] concerns MERSMA-CoV. The conditions noted are these: mouse, in vivo.
Data set [12] has as its system feline infectious peritonitis (FIP). The conditions noted are these: in vivo; cited from earlier work.
Data set [13] has as its system FIPV. The following applies: read-out: EC50 in cell culture, FIPV; cited from earlier work.
Setting [14] is: Middle East respiratory syndrome-related coronavirus, Huh-7, read-out: EC50 in cell culture, MERS-CoV.

These results are taken from publication PMC7574915 (Science Translational Medicine, 2020).

Where “and” joins values, the source holds several entries; their conditions need not be identical. Identical values can stand only once. Like-named read-outs stand apart in the source and are kept apart here.

Sequence of 3CLpro of MERS-CoV (K9N7C7 3248-3553 limits assumed): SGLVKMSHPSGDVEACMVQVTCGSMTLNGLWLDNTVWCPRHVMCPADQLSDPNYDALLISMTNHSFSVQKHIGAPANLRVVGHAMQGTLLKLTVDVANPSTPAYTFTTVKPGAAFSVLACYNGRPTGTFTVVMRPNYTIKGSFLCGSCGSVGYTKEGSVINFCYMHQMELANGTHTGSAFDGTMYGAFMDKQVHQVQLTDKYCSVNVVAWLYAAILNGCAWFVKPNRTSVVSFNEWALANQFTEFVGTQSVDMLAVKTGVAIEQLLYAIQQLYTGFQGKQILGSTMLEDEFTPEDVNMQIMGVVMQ

One may read the EC50 as the concentration at which the effect is half-maximal. One may read the IC50 as the concentration at which inhibition is half-maximal. A lower IC50 goes with inhibition by little substance. With `CC(C)C[C@H](NC(=O)OC1CCCCC1)C(=O)N[C@H](C=O)C[C@@H]1CCNC1=O` [Compound 6a], the EC50 in data set [1] was found to be 120 ± 50 nM; in [2], 90 ± 20 nM. Further, the half-maximal inhibitory concentration (IC50) was 3900 ± 300 nM in [3], 350 ± 100 nM in data set [5] and 820 ± 100 nM in [6]. The CC50 in [4] was > 100000 nM.

Take `CCCC1CCC(OC(=O)N[C@@H](CC(C)C)C(=O)N[C@H](C=O)C[C@@H]2CCNC2=O)CC1` (stereo partly shown) [Compound 6c]: the EC50 in data set [1] worked out at 130 ± 50 nM; in data set [2], 120 ± 10 nM; in data set [7] it was 250 ± 150 nM; in [8] (setting [14]), 50 ± 60 nM. The CC50 in data set [4] was > 100000 nM. Besides, the “EC50 in cell culture, MERS-CoV” value in data set [8] is recorded as “submicromolar”. In [6], this compound displayed an IC50 of 280 ± 50 nM.

The inhibition is the change of the read-out against control, counted positive when it falls. Turning to `CCCCC1CCC(OC(=O)N[C@@H](CC(C)C)C(=O)N[C@H](C=O)C[C@@H]2CCNC2=O)CC1` (stereo partly shown) [Compound 6e], the “inhibition of viral replication” value in data set [9] is given as “about 10 fold”. Moreover, the inhibition at 0.5 µM in data set [9] (Severe acute respiratory syndrome coronavirus 2, Epithelial cell, read-out: inhibition of virus replication) was ~50%. The concentration for a half-maximal effect (EC50) was found to be 120 ± 40 nM in [1], 220 ± 30 nM in [2] and 150 ± 140 nM in [7]. Besides, the figures for the IC50 in data set [3], in [5] and in data set [6] were 900 ± 100 nM, 150 ± 20 nM and 170 ± 60 nM, respectively. Besides, the CC50 in data set [4] was 63300 ± 2300 nM.

`CC(C)C[C@H](NC(=O)OC1CCC(F)(F)CC1)C(=O)N[C@H](C=O)C[C@@H]1CCNC1=O` [Compound 6h]: the EC50 in data set [1] stood at 80 ± 50 nM; in data set [2], 120 ± 50 nM; in data set [7] it was 900 ± 800 nM. For the same compound, the body weight result in data set [10] (ip) is given as “continued to lose body weight until 6 dpi but then started to gain weight from 9 dpi”. In data set [10] (ip), the “survival at the end of the study (15 dpi)” value worked out at 40%. The IC50 worked out at 2300 ± 300 nM in [3], 70 ± 10 nM in [5] and 430 ± 100 nM in data set [6]. In addition, the CC50 in data set [4] is > 100000 nM.

As to `CC(C)C[C@H](NC(=O)OCC1CCC(F)(F)CC1)C(=O)N[C@H](C=O)C[C@@H]1CCNC1=O` [Compound 6j], in data set [9], the “inhibition of viral replication” value was “about 10 fold” and the “inhibition of virus replication” value is recorded as 100 fold. In data set [9] (48 hours), the “Virus titers (log10)” value is 6.35 ± 0.02 log10 and 6.10 ± 0.09 log10 and 6.30 ± 0.1 log10. Also, the body weight result in data set [10] is “regained the lost weight by 15 dpi”. Besides, in data set [10] (ip), the body weight entry is recorded as “rapidly recovered from body weight loss starting at 3 dpi” and the “survival at the end of the study (15 dpi)” value is reported as “all mice treated with compound 6j were alive”. Further, the EC50 in [2] was 80 ± 20 nM. The CC50 in [4] is > 100000 nM. Also, in data set [11], the “Edema in the lungs (score 0 to 4)” value was “reduced compared to control mice”, the Lung virus titers result was “decreased”, the “Scores for hyaline membrane formation (0 to 4)” value is listed as “reduced in 6j-treated mice but were not statistically different from control mice” and the “lung lesions (histopathology)” value is “few observed lesions”. The “EC50 in cell culture, MERS-CoV” value in data set [8] is listed as “submicromolar”. In addition, the EC50 in [8] (setting [14]) is 40 ± 20 nM.

As to `CC(C)C[C@H](NC(=O)OC1CCCCC1)C(=O)N[C@@H](C[C@@H]1CCNC1=O)C(O)S(=O)(=O)O` (stereo partly shown) [Compound 7a], the figures for the EC50 in [1], in [2] and in data set [8] (setting [14]) were 80 ± 30 nM, 70 ± 20 nM and 80 ± 100 nM, respectively. The IC50 in data set [3] was found to be 3800 ± 400 nM; in [5] it was 150 ± 10 nM; in data set [6], 650 ± 60 nM. Also, the CC50 in data set [4] was > 100000 nM. For the same compound, the “EC50 in cell culture, MERS-CoV” value in [8] is on record as “submicromolar”.

Take `CCCC1CCC(OC(=O)N[C@@H](CC(C)C)C(=O)N[C@@H](C[C@@H]2CCNC2=O)C(O)S(=O)(=O)O)CC1` (stereo partly shown) [Compound 7c]: the EC50 in [1] came out at 160 ± 80 nM; in data set [2], 170 ± 30 nM. Further, the CC50 in [4] is > 100000 nM. The IC50 came out at 100 ± 40 nM in [5] and 230 ± 50 nM in data set [6].

With `CCCCC1CCC(OC(=O)N[C@@H](CC(C)C)C(=O)N[C@@H](C[C@@H]2CCNC2=O)C(O)S(=O)(=O)O)CC1` (stereo partly shown) [Compound 7e], the EC50 in [1] worked out at 130 ± 20 nM; in data set [2], 170 ± 20 nM; in data set [8] (setting [14]) it was 530 ± 200 nM. The IC50 is 1000 ± 100 nM in [3], 130 ± 60 nM in data set [5] and 200 ± 60 nM in [6]. For the same compound, the CC50 in [4] is 59100 ± 3500 nM. Besides, the “EC50 in cell culture, MERS-CoV” value in [8] was “submicromolar”.

In the case of `CC(C)C[C@H](NC(=O)OC1CCC(F)(F)CC1)C(=O)N[C@@H](C[C@@H]1CCNC1=O)C(O)S(=O)(=O)O` (stereo partly shown) [Compound 7h], the EC50 is 110 ± 80 nM in data set [1], 120 ± 60 nM in [2] and 210 ± 100 nM in data set [8] (setting [14]). Besides, the IC50 in data set [3] was determined as 2200 ± 100 nM; in data set [5], 80 ± 10 nM; in data set [6] it was 410 ± 100 nM. Besides, in data set [4], the CC50 was > 100000 nM. In addition, the “EC50 in cell culture, MERS-CoV” value in [8] is “submicromolar”.

For `CC(C)C[C@H](NC(=O)OCC1CCC(F)(F)CC1)C(=O)N[C@@H](C[C@@H]1CCNC1=O)C(O)S(=O)(=O)O` (stereo partly shown) [Compound 7j], the values for the EC50 in data set [1] and in data set [2] were 160 ± 50 nM and 70 ± 10 nM, respectively. The IC50 in data set [3] was 1100 ± 100 nM; in data set [5], 100 ± 10 nM; in data set [6], 450 ± 100 nM. Moreover, the CC50 in data set [4] is > 100000 nM.

`CC(C)C[C@H](NC(=O)OCc1ccccc1)C(=O)N[C@@H](C[C@@H]1CCNC1=O)C(O)S(=O)(=O)O` (stereo partly shown) [GC376, reference compound]: the CC50 in data set [4] was > 100000 nM. Besides, the “progression of FIP” value in [12] is “reversed the progression of FIP and resulted in clinical remission”. Besides, the EC50 in data set [8] (setting [14]) is ~1000 nM; in data set [8] (read-out: EC50 in cell culture, MERS-CoV), 900 ± 200 nM; in data set [13], 40 nM.
